Here are results for eleven compounds from ChEMBL document CHEMBL5241106, “Discovery of a Dual Tubulin and Poly(ADP-Ribose) Polymerase-1 Inhibitor by Structure-Based Pharmacophore Modeling, Virtual Screening, Molecular Docking, and Biological Evaluation” (J Med Chem, 2021).

One series deals with Tubulin (Homo sapiens) (UniProt P68371+Q9H4B7+P0DPH7+P68366+Q13509+Q71U36+P04350+Q3ZCM7+P07437+P68363+Q9BQE3+Q6PEY2+Q13885+Q9BVA1+Q9BUF5). Nature of the series: Inhibition of tubulin polymerization (unknown origin) at 10 uM by turbidimetric analysis. The class given is protein-complex assay.
For the next series, the system named is Tubulin. Nature of the series: Inhibition of tubulin polymerization (unknown origin) by turbidimetric analysis. Format: protein-complex assay, Homo sapiens.
Series [1] concerns the target Poly [ADP-ribose] polymerase 1 (Homo sapiens, UniProt P09874). Description: Inhibition of PARP1 (unknown origin) using [3H]NAD+ as substrate incubated for 15 mins by scintillation counting analysis.
In series [2] the test system is MDA-MB-231. Nature of the series: Cytotoxicity against human MDA-MB-231 cells assessed as inhibition of cell growth incubated for 72 hrs by MTT assay. The class given is functional, cell-based. (Tetrazolium dyes change colour on reduction, which living cells bring about.)
Series [3] can be described thus: Cytotoxicity against human MCF-10A cells assessed as inhibition of cell growth incubated for 72 hrs by MTT assay. The class given is toxicity, cell-based.
Series [4] concerns MDA-MB-231. Description: Induction of apoptosis in human MDA-MB-231 cells incubated for 24 hrs by DAPI staining based confocal laser microscopy. The class given is functional, cell-based.
For series [5], the system named is MDA-MB-231. Nature of the series: Induction of apoptosis in human MDA-MB-231 cells assessed as viable cells at 2.5 uM incubated for 48 hrs by Annexin V-FITC/PI staining based flow cytometry (reference value: 91.4%). The class given is functional. As to conditions: read-out: Activity. On the technique in general: In flow cytometry, cells or beads pass a laser one at a time.

The subject of series [6] is MDA-MB-231. Nature of the series: Induction of apoptosis in human MDA-MB-231 cells assessed as early apoptotic cells at 2.5 uM incubated for 48 hrs by Annexin V-FITC/PI staining based flow cytometry (reference value: 1.71%). Format: functional.
The subject of series [7] is MDA-MB-231. Description: Induction of apoptosis in human MDA-MB-231 cells assessed as late apoptotic cells at 2.5 uM incubated for 48 hrs by Annexin V-FITC/PI staining based flow cytometry (reference value: 5.06%). The class given is functional.
For series [8], the system named is MDA-MB-231. Description: Induction of apoptosis in human MDA-MB-231 cells assessed as necrotic cells at 2.5 uM incubated for 48 hrs by Annexin V-FITC/PI staining based flow cytometry (reference value: 1.86%). Format: functional.

Calls of active or inactive are those of the source. The rule behind the calls is not given here.

Poly [ADP-ribose] polymerase 1, sequence (P09874 whole entry): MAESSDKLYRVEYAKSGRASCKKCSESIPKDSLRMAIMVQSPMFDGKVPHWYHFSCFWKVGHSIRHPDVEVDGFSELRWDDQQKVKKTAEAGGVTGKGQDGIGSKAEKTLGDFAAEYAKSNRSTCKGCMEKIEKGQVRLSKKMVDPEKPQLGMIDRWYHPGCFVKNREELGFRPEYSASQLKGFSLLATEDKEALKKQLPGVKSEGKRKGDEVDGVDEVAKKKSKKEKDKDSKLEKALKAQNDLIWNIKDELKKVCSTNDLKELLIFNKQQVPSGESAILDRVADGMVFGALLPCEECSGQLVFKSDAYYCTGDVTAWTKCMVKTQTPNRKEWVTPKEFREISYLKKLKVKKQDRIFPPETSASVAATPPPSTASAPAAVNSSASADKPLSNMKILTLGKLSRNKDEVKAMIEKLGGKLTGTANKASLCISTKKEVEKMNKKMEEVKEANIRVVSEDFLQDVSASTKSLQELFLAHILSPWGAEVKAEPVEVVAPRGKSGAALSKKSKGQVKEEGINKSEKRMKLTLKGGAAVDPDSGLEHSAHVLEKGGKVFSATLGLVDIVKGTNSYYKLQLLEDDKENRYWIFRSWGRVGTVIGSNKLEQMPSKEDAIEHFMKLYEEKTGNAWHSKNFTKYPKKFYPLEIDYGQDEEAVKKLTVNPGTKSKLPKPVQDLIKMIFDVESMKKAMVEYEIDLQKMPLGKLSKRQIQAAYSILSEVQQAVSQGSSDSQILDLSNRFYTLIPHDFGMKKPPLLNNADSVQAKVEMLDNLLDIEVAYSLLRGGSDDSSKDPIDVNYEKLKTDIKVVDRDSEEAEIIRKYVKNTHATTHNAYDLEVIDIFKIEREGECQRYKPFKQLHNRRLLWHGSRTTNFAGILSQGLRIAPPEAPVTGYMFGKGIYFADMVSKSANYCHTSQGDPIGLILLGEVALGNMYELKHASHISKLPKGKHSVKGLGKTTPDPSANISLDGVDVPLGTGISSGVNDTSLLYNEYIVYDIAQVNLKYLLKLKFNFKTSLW

Take `O=c1[nH]c(/C=C/c2ccc([N+](=O)[O-])cc2)nc2ccccc12`: the inhibition on Tubulin (Homo sapiens) came out at 61%.

In the case of `CN(C)C(=O)Cc1ccc2[nH]c(=O)c3ccccc3c2c1`, in the series on Tubulin, the IC50 entry is reported as “Not Active”. Regarding `COc1ccc(-c2nc3ccccc3c(=O)[nH]2)cc1C`, the inhibition at Tubulin (Homo sapiens) is 49%. The same measure, in the same setting: the result for `COc1ccc(-c2nc(O)c3ccccc3n2)cc1` reads 47%; that for `O=c1[nH]c(/C=C/c2cccc([N+](=O)[O-])c2)nc2ccccc12`, 65%. Still for that read-out and setting: the value for `Cc1ccc(-c2nc3ccccc3c(=O)[nH]2)cc1` was 45%; that for `O=c1[nH]c(/C=C/c2cc(Br)ccc2O)nc2ccccc12` was 63%. On the same count and under the same terms, the value for `Cc1cccc(-c2nc(O)c3ccccc3n2)c1` was 43%. Consider `O=c1[nH]c(/C=C/c2ccccc2)nc2ccccc12`, for which the inhibition against Tubulin (Homo sapiens) was 82%. As for `COc1cc2c(c(OC)c1OC)-c1ccc(OC)c(=O)cc1[C@@H](NC(C)=O)CC2` [COLCHICINE], in [1], the IC50 entry is “Not Active”. Besides, the outcome in the series with MDA-MB-231 [2] and in the series on MDA-MB-231 [4] was Active. In addition, the IC50 at 72 h in [3] came out at 6 nM. The viability at 2.5 µM in the series with MDA-MB-231 [5] was 88%. In addition, the Activity is 1.89% in the series with MDA-MB-231 [6], 8.1% in the series with MDA-MB-231 [7] and 2.04% in the series with MDA-MB-231 [8].

In turn, `COc1cc(/C=C/c2nc(O)c3ccccc3n2)ccc1O` had an inhibition against Tubulin (Homo sapiens) of 69%.

What is called inhibition is the change of the read-out against control, counted positive when it falls. One may read the IC50 as the point on the concentration scale where inhibition reaches its midpoint.
